According to BindingDB's records for doi:10.1016/j.bmc.2011.12.011 (University of Auckland, 2012):

Biological target: T1, Perforin-1 (Homo sapiens, UniProt P14222)
T1 sequence (P14222 whole entry): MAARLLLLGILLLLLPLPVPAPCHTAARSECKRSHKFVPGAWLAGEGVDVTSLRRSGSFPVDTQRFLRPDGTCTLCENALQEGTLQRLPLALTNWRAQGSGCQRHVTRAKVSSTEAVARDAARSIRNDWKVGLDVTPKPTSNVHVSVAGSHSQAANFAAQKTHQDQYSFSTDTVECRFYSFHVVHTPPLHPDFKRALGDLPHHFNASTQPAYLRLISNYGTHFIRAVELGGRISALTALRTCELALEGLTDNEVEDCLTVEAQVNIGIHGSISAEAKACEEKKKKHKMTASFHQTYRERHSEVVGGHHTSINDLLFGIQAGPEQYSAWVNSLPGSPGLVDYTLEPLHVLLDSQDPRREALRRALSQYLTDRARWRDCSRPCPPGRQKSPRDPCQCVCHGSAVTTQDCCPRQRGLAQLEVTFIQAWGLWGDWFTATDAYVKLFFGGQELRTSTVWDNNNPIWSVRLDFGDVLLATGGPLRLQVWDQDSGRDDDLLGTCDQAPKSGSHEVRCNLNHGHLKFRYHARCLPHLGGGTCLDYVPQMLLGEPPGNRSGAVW
Assay: Inhibition of recombinant perforin-mediated lysis of Jurkat cells assessed as [51Cr] release preincubated with perforin for 30 mins followed by incubation with [51Cr]-labeled Jurkat cells by gamma counting

Compound `O=C(NCC=Cc1[nH]c(=S)[nH]c1O)c1ccc2c(c1)COC2=O` has an IC50 greater than 20 µM.

Biological target: not listed separately
Assay: Inhibition of recombinant perforin-mediated lysis of Jurkat cells assessed as [51Cr] release preincubated with perforin for 30 mins followed by incubation with [51Cr]-labeled Jurkat cells by gamma counting

Going from `O=C1NC(=S)NC1=Cc1csc(-c2ccc3c(c2)COC3=O)n1` to `O=C1NC(=S)NC1=Cc1nc(-c2ccc3c(c2)COC3=O)cs1`, the IC50 rises from 340 nM to 1410 nM (4.1-fold).

Going from `O=C1OCc2cc(-c3cccs3)ccc21` to `O=Cc1ccc(-c2ccc3c(c2)COC3=O)s1`, the IC50 falls from greater than 20000 nM to 6310 nM. The second is the more potent here.

First: O=C1NC(=S)NC1=Cc1cc(-c2ccc3c(c2)COC3=O)ns1
Second: O=C1NC(=S)NC1=Cc1ccc(-c2ccc3c(c2)COC3=O)s1
The IC50 of the first is 1.8-fold higher: 1440 nM for the first, 780 nM for the second. The second is the more potent here.

Going from `O=C1NC(=S)NC1=Cc1ccc2cc(-c3ccc4c(c3)COC4=O)ccc2n1` to `O=C1NC(=S)NC1=Cc1cc2cc(-c3ccc4c(c3)COC4=O)ccc2[nH]1`, the IC50 rises from 470 nM to 820 nM (1.7-fold). The first is the more potent here.

`O=C1NCCCC1=Cc1ccc(-c2ccc3c(c2)COC3=O)s1` and `O=C1NC(=S)SC1=Cc1ccc(-c2ccc3c(c2)COC3=O)s1` cannot be ordered by IC50: 15200 nM for the first, greater than 10000 nM for the second.

Going from `O=C1NC(=S)NC(=O)C1=Cc1ccc(-c2ccc3c(c2)COC3=O)s1` to `O=C1NC(=O)C(=Cc2ccc(-c3ccc4c(c3)COC4=O)s2)C(=O)N1`, the IC50 rises from 400 nM to 800 nM (2-fold).

`COC(=O)Cc1ccc(-c2ccc3c(c2)COC3=O)s1` and `O=C(O)Cc1ccc(-c2ccc3c(c2)COC3=O)s1` cannot be ordered by IC50: greater than 20000 nM for the first, greater than 20000 nM for the second.

`O=C1NC(=S)NC1=Cc1ccc(-c2ccc3c(c2)COC3=O)[nH]1` and `O=C1NC(=S)NC1=Cc1ccc(-c2ccc3c(c2)COC3=O)nc1` are within 1.5-fold of each other in IC50: 2450 nM for the first, 2000 nM for the second.

Going from `O=C1NC(=O)C(=Cc2ccc(-c3ccc4c(c3)COC4=O)s2)S1` to `CN1C(=O)C(=Cc2ccc(-c3ccc4c(c3)COC4=O)s2)C(=O)N(C)C1=O`, the IC50 rises from 1120 nM to 3960 nM (3.5-fold). The first is the more potent here.

Compared with `O=C1NC(=S)NC1=Cc1cc2cc(-c3ccc4c(c3)COC4=O)ccc2o1`, `O=C1OCc2cc(-c3ccc(-c4cnco4)s3)ccc21` is 6.2-fold higher in IC50: 510 nM for the first, 3180 nM for the second.

For `CC(=O)c1ccc(-c2ccc3c(c2)COC3=O)s1`, the IC50 was greater than 20000 nM.
